Experimental findings from ChEMBL document CHEMBL4017496 (J Med Chem, 2017) are described below.

In assay [1] the test system is Mesenchymal stem cell. Nature of the assay: Inhibition of adipogenesis in human bone marrow-derived mesenchymal stem cells assessed as decrease in number and size of lipid droplets at 1 mM after 7 days in presence of IDX by oil red O staining based inverted microscopic method. It counts as functional.
Assay [2] relates to Mesenchymal stem cell. Nature of the assay: Inhibition of adipogenesis in human bone marrow-derived mesenchymal stem cells at 1 mM after 7 days in presence of IDX. The format is functional, cell-based.
A short description of assay [3]: Induction of adipogenesis in human bone marrow-derived mesenchymal stem cells assessed as adiponectin level at 20 uM measured on day 7 after 48 hrs by ELISA. It counts as functional, Mesenchymal stem cell. Background: ELISA stands for enzyme-linked immunosorbent assay.
Assay [4] deals with T1, Peroxisome proliferator-activated receptor gamma (Homo sapiens, UniProt P37231).
T1 sequence (P37231 whole entry): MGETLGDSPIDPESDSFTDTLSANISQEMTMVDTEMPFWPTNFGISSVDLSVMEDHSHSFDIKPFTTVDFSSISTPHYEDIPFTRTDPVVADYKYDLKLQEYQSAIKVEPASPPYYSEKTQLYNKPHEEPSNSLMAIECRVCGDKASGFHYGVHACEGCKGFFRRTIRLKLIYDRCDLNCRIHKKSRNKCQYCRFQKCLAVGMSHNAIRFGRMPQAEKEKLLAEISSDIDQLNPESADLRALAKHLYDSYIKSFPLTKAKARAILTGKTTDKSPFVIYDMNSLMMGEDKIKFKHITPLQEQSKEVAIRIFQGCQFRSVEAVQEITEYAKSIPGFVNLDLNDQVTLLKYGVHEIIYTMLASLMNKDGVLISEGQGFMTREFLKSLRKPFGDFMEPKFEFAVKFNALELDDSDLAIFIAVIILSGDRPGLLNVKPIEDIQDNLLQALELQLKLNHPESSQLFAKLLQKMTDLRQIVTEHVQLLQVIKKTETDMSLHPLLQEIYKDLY
The assay is described as follows: (§1) Displacement of Fluormone-Pan-PPAR Green from human GST-tagged PPARgamma LBD by TR-FRET assay. In general terms: In TR-FRET formats the signal depends on donor and acceptor labels being close together.

The target of assay [5] is T2, Peroxisome proliferator-activated receptor gamma (Homo sapiens) (UniProt P37231).
T2 sequence (whole entry): T1 sequence (P37231 whole entry)
Described as §1.

The target of assay [6] is T3, Glucocorticoid receptor (Homo sapiens) (UniProt P04150).
T3 sequence (whole entry): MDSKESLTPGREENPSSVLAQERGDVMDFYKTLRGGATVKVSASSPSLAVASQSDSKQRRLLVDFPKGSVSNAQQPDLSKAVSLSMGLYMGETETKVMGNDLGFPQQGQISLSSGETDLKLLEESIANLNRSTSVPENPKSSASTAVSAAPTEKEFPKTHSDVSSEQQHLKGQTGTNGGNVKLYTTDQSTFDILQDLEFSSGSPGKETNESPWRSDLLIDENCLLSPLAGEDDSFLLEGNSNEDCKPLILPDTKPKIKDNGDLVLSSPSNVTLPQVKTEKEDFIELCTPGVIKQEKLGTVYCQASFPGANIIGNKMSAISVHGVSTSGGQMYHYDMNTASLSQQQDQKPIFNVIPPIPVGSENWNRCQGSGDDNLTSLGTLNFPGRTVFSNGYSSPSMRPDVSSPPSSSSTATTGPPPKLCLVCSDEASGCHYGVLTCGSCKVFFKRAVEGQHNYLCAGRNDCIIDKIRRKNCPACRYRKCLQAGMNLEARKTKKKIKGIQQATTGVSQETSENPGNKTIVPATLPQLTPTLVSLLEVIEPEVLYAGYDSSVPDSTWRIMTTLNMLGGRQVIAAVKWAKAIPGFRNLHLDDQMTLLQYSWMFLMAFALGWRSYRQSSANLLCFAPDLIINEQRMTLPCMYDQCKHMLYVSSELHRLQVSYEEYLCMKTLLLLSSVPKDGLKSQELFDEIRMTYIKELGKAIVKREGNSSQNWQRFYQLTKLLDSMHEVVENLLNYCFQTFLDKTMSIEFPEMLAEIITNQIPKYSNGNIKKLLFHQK
Nature of the assay: Displacement of Fluormone-GS1 from human GST-tagged glucocorticoid receptor LBD at 4 uM by TR-FRET assay.

Assay [7] has as its target T4, Peroxisome proliferator-activated receptor delta (Homo sapiens, UniProt Q03181).
T4 sequence (Q03181 whole entry): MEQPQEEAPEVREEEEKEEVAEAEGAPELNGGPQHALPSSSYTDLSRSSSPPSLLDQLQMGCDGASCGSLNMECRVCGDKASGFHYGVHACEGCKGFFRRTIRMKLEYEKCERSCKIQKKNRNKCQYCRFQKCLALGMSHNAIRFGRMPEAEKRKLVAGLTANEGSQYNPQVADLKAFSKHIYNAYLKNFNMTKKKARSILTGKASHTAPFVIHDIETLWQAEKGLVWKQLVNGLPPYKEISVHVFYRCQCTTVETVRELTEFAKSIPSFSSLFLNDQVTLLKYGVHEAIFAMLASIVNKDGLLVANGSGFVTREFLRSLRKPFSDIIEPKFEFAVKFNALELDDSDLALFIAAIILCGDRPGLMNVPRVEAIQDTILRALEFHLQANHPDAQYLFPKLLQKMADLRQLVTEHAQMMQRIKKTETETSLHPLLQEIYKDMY
The assay is described as follows: Displacement of Fluormone-Pan-PPAR Green from human GST-tagged PPARdelta LBD by TR-FRET assay.

Assay [8] addresses T5, Oxysterols receptor LXR-alpha (Homo sapiens) (UniProt Q13133).
T5 sequence (whole entry): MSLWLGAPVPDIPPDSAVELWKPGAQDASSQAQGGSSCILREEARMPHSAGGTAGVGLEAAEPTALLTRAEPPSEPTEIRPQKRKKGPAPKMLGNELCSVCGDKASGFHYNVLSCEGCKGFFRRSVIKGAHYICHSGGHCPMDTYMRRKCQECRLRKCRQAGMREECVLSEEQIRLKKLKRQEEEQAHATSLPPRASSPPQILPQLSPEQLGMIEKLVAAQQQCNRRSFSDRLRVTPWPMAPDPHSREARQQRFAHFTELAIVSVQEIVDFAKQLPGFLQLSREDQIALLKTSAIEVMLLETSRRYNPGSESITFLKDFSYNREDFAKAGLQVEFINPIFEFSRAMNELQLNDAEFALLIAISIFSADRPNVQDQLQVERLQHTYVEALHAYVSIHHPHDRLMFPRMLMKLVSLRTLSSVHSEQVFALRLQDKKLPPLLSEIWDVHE
Nature of the assay: Binding affinity to human LXRalpha at 4 uM by TR-FRET assay.

Assay [9] concerns the target T6, Oxysterols receptor LXR-beta (Homo sapiens) (UniProt P55055).
T6 sequence (whole entry): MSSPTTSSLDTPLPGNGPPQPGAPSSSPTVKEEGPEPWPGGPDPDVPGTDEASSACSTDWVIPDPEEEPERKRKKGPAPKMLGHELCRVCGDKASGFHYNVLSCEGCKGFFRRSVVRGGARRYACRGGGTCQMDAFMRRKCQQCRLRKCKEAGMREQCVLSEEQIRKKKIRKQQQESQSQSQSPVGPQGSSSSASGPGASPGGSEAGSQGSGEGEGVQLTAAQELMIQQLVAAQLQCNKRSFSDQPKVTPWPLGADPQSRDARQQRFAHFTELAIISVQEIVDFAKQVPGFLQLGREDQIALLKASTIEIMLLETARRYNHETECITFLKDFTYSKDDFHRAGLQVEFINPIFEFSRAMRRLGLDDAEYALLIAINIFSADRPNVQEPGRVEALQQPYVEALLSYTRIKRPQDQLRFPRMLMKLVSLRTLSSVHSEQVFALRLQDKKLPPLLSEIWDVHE
Nature of the assay: Binding affinity to human LXRbeta at 4 uM by TR-FRET assay.

Assay [10] can be described thus: Induction of adipogenesis in human bone marrow-derived mesenchymal stem cells assessed as adiponectin level at 4 uM measured on day 7 after 48 hrs by ELISA. The format is functional, Mesenchymal stem cell.
For assay [11], the target named is T7, Peroxisome proliferator-activated receptor delta (Homo sapiens) (UniProt Q03181).
T7 sequence (whole entry): T4 sequence (Q03181 whole entry)
The assay is described as follows: Displacement of Fluormone-Pan-PPAR Green from human GST-tagged PPARdelta LBD at 4 uM by TR-FRET assay relative to control.

Assay [12] has as its target T8, Peroxisome proliferator-activated receptor alpha (Homo sapiens) (UniProt Q07869).
T8 sequence (whole entry): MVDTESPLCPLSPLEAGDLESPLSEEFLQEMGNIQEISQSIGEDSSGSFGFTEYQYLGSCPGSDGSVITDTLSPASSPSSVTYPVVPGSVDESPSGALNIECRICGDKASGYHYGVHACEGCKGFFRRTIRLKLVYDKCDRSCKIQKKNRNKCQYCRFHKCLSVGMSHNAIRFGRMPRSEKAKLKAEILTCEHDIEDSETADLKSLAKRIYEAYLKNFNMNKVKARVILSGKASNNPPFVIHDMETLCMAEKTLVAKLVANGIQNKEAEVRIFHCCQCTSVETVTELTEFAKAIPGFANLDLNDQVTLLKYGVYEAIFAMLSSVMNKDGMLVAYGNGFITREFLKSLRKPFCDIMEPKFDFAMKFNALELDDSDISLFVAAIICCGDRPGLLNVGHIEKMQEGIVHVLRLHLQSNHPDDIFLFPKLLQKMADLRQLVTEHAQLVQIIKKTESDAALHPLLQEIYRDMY
Nature of the assay: Displacement of Fluormone-Pan-PPAR Green from human GST-tagged PPARalpha LBD at 20 uM by TR-FRET assay relative to control.

Assay [13] has as its target T2, Peroxisome proliferator-activated receptor gamma (Homo sapiens). The assay is described as follows: Displacement of Fluormone-Pan-PPAR Green from human GST-tagged PPARgamma LBD at 4 uM by TR-FRET assay relative to control.
In assay [14] the target is T8, Peroxisome proliferator-activated receptor alpha (Homo sapiens). The assay is described as follows: Displacement of Fluormone-Pan-PPAR Green from human GST-tagged PPARalpha LBD at 4 uM by TR-FRET assay relative to control.

The source made the active and inactive calls. No cut-off for these calls is given here.

In the case of `Cn1c(=O)c2c(ncn2C)n(C)c1=O`, the inhibition result in [1] and in assay [2] was “Active” in each case.
Consider `CNC(=O)[C@H]1O[C@@H](n2cnc3c(NCc4cccc(I)c4)nc(Cl)nc32)[C@H](O)[C@@H]1O` [NAMODENOSON], for which the Activity in assay [3] was 603 pg/mL; in [10], 221 pg/mL. Besides, the inhibition constant Ki in [4] was 2180 nM; in assay [7], 430 nM. The inhibition result is “Dose-dependent effect” in assay [5], 75% in assay [11], 46.5% in [12] and 59% in assay [13]. In addition, the inhibition result in assay [6] and in assay [14] was “inactive” each time. The result in assay [8] and in assay [9] was inactive.

The inhibition is the percentage by which the read-out fell short of the control. The term Ki denotes the equilibrium dissociation constant of an inhibitor or competing ligand from its target. A high value points to a looser hold on the target.
